Assays:
normal rats = test: Novel Object Recognition (NOR) task; format: in vivo, rat
Procedure: Episodic memory is a cognitive domain known to be impaired in Alzheimer's disease; the Novel Object Recognition task is a commonly used and quick, clean model used to assess potential cognitive benefit derived from the test compounds. Compound A (7,8,9,10-tetrahydro-6H-azepino[4,5-g]quinoxaline) improved long-term visual episodic/declarative memory as assessed by novel object recognition (NOR) task following oral dosing in normal rats. Memory was assessed by using the three-trial object recognition test. On the first day (exploratory trial), rats were allowed to explore an open arena (44.5×44.5×30.5 cm) for 6 min. On the second day (acquisition trial), rats were allowed to explore the same arena in the presence of two identical objects (both object A) for 3 minutes. On the third day (retention or recall trial), performance was evaluated by allowing the same animal to re-explore the arena for 3 minutes in the presence of two different objects: the familiar object A and a novel object B. An inter-trial interval of 24 hours was imposed between the three NOR trials. Recognition memory was assessed by comparing the time spent exploring a novel (object B) versus a familiar (object A) object during the recall trial. Recognition index was assessed for each animal and expressed as a ratio ((time B/time A+time B)×100).
Compound A was evaluated for its duration of effect in the NOR task in normal rats. Using similar experimental procedures as described earlier, 0.03, 0.1, and 0.3 mg/kg (0.15, 0.5 and 1.51 μmol/kg) Compound A was orally administered to animals 30 minutes prior to placement in the arena for the exploratory and acquisition trials. For the recall trial (i.e., third day of dosing), animals were placed in the arena at 6 h, post administration.
A follow-up NOR study evaluated the duration of effect of Compound A following a 6 h pre-treatment prior to the recall trial.

[1] = test system: animals impaired with scopolamine; test: Radial Arm Maze (RAM) task, scopolamine-induced cognitive deficits; format: in vivo, rat; conditions: 3 mg/kg (15.1 μmol/kg) p.o.
Procedure: Working memory is a cognitive domain known to be impaired in schizophrenia; the Radial Arm Maze task is commonly used to assess potential cognitive benefit derived from the test compounds. Using this assay, Compound A (7,8,9,10-tetrahydro-6H-azepino[4,5-g]quinoxaline) attenuated cognitive deficits induced by scopolamine in an animal model of working memory. Working memory was assessed in a 3 trial radial arm maze (RAM) task. The RAM task was conducted using an automated eight-arm maze (Med Associates, Inc.) The maze was located on a circular table approximately 88 cm above the floor with overhead lighting in a dedicated testing room and large, high contrast geometric shapes on the wall. […] The central platform measured 30.5 cm in diameter with eight arms (9 cm W×45.7 cm L×16.8 cm H) radiating from it. […] Activity on the maze was monitored by tracking quantitative activity (generated by infra-red beam breaks) on the computer interface and monitor screen.
Following the baseline assessment on day 1 and after re-attainment of test session criterion, animals were assessed for their sensitivity to chemically-induced cognitive impairment using the muscarinic antagonist scopolamine (0.2-0.4 mg/kg; s.c.). A dose of scopolamine was determined for each animal based on the minimum dose that produced significant and reliable cognitive impairment. […]

With `c1cnc2cc3c(cc2n1)CCNCC3` [Compound A, 7,8,9,10-tetrahydro-6H-azepino[4,5-g]quinoxaline] the recognition index (normal rats; 0.03 mg/kg (0.15 μmol/kg) p.o., 6 h pre-treatment prior to the recall trial, vehicle 52±0.5%) was 64±3%, the recognition index (normal rats; 0.3 mg/kg (1.5 μmol/kg) p.o., 30 minutes before the three trials, vehicle 50±0.5%) was 69±5% and the recognition index (normal rats; 0.3 mg/kg (1.5 μmol/kg) p.o., 6 h pre-treatment prior to the recall trial, vehicle 52±0.5%) was 68±3%. For the same compound, the recognition index (normal rats; 3 mg/kg (15.1 μmol/kg) p.o., 30 minutes before the three trials, vehicle 50±0.5%) was 65±3%, the “duration of effect on recognition memory index” value (normal rats; 0.15 and 1.51 μmol/kg p.o., recall trial 6 h post administration) was “facilitated recognition memory index for up to 6 h after dosing” and the “effect on recognition memory (enhancement of recognition index vs vehicle)” value (normal rats; 0.3 and 3 mg/kg p.o., 30 minutes before the three trials) was “facilitated recognition memory”. For the same compound, the “effect on scopolamine-induced cognitive deficits, RAM” value [1] was “attenuated scopolamine-induced cognitive deficits”.

From patent US20120053168A1, “FUSED BENZOAZEPINES AS NEURONAL NICOTINIC ACETYLCHOLINE RECEPTOR LIGANDS” (Targacept, Inc., priority 2009, published 2012)
